Patent US11191773B2, “Methods of treatment for bacterial infections” (President and Fellows of Harvard College, priority 2017, dated 2021)
Where two headings read alike, the source gives them in different places.

How the values were obtained:
[1] = test system: A. baumannii (ATCC: 19606) mutant that is novobiocin and polymyxin-resistant; test: Checkerboard microdilution assay, polymyxin-resistant strain; format: cell-based; conditions: 37° C. for 24 h
Procedure: (§3) The effect of novobiocin/polymyxin combination was further assessed in polymyxin-resistant strains using checkerboard microdilution assays. In these assays, polymyxin-resistant strains (E. coli (clinical isolate from Brigham and Women's Hospital); A. baumannii (ATCC: 19606) mutant that is novobiocin and polymyxin-resistant; and K. pneumoniae (clinical isolate from Brigham and Women's Hospital)) were grown at 37° C. for 24 h.

[2] = biological target: T1, LptB2LptFG(ch)C complexes (Escherichia coli, UniProt P0A9V1); test: LPS-release assay, right-side-out vesicles to LptA*; format: biochemical, E. coli; conditions: 30° C. (FIG. 9C)
T1 construct: made in house; host or cells: right-side-out membrane vesicles from E. coli BL-21(λDE3) overexpressing the complex
T1 sequence (P0AF98 whole entry E84A): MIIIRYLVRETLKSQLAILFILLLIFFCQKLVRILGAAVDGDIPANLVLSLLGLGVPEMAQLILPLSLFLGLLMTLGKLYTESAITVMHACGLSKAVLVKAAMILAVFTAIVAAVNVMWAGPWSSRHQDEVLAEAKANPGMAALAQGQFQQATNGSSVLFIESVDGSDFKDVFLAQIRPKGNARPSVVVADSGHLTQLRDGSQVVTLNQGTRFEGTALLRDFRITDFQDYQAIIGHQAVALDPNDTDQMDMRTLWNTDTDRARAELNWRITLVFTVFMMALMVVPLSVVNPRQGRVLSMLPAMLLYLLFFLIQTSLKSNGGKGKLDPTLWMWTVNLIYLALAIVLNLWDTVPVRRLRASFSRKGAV
T1 sequence (P0ADC6 whole entry E88A, further chain): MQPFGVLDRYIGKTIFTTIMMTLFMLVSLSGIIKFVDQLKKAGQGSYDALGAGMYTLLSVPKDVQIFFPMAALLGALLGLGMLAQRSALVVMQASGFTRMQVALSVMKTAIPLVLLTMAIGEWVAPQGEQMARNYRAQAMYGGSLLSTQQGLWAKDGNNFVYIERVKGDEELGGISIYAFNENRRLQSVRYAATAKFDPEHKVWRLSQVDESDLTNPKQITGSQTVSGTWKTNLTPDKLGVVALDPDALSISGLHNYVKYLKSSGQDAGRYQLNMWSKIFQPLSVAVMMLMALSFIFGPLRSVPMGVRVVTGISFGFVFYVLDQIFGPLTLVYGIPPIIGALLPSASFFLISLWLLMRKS
T1 sequence (P0A9V1 2-241): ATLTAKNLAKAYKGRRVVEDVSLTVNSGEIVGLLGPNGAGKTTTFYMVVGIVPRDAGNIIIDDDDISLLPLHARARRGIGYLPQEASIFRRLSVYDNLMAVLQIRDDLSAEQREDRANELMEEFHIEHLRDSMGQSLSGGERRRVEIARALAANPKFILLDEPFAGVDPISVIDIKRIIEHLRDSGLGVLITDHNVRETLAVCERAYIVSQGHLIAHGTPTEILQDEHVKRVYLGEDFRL
T1 sequence (P0ADV9 whole entry, further chain): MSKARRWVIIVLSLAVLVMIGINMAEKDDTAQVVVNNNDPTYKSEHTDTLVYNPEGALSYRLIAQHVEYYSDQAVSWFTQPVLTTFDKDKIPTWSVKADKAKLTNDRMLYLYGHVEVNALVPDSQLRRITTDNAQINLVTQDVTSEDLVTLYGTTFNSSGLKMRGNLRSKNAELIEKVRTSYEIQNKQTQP
Procedure: FIG. 9A is a schematic drawing showing the assay to monitor LPS release from right-side-out vesicles to LptA* (LptA(I36pBPA)). Vesicles containing overexpressed wild-type or mutant LptB2FGC complexes were incubated with LptA* and ATP at 30° C. to initiate LPS extraction and transport from the vesicles to LptA*. Samples were taken at different time points and UV-irradiated to crosslink LPS to LptA*, and accumulation of LPS-LptA* adducts was detected using LPS immunoblots.
The assay detects via immunoblot LPS that becomes crosslinked to LptA* in the presence of UV light. […] By comparison, vesicles containing LptB2LptFG(ch)C complexes released less LPS over time (FIG. 9B, lanes 5-8). These experiments provide direct evidence that the amino acid changes in LptFG(ch), which were known to affect complex formation with LptB, impair LPS release. […] These compounds also increase LPS release from vesicles containing wild-type LptB2FGC complexes or LptB(R91 S)2FGC complexes (FIG. 17).
The in vitro LPS-transport experiments in FIGS. 9B, 9C, and 17 were set-up as described in (Okuda et al. Science 2012, 338, 1214-1217) with some modifications. […]
Immunoblotting was used to assess LptA*-LPS levels in each sample. […] LptA levels were assessed similarly, using rabbit anti-LptA antiserum followed by donkey anti-rabbit horseradish peroxidase conjugate (GE Amersham). […]

[3] = test system: polymyxin-resistant E. coli (clinical isolate from Brigham and Women's Hospital); format: cell-based; conditions: 37° C. for 24 h
Procedure: as §3

[4] = test system: lptB1; test: Disk diffusion assay; format: cell-based, E. coli; conditions: Escherichia coli
Procedure: (§1) Zones of inhibition were measured in disk diffusion assays of wild type, IptB1, and suppressors IptB1(R144H) and IptB1(G33C) pictured in FIG. 6B. Assays were conducted with 6-mm disks. Numbers outside of parentheses report the diameter of the zone of total growth inhibition (in mm), while numbers inside parenthesis report the diameter of the zone of partial growth inhibition.
(§2) Disk diffusion assays were performed as described in Sherman et al., Proc. Natl. Acad. Sci. USA 2014, 111, 4982-4987. Premade Sensi-Disc (BD-Beckton, Dickinson and Company) were used for bacitracin 10IU, erythromycin 15 μg, novobiocin 30 μg, and rifampin 5 μg.

[5] = test system: wild type; test: Disk diffusion assay; format: cell-based, E. coli; conditions: Escherichia coli; 6-mm disks; bacitracin 10IU, erythromycin 15 μg, novobiocin 30 μg, rifampin 5 μg, nalidixic acid 5 μg; read-out: Zone of inhibition, diameter of the zone of total growth inhibition
Procedure: as §1, §2

[6] = test system: lptB1(G33C); test: Disk diffusion assay; format: cell-based, E. coli; conditions: Escherichia coli, read-out: Zone of inhibition, diameter of the zone of total growth inhibition
Procedure: as §1, §2

[7] = test system: lptB1(R144H); test: Disk diffusion assay; format: cell-based, E. coli; conditions: Escherichia coli, read-out: Zone of inhibition, diameter of the zone of total growth inhibition
Procedure: as §1, §2

[8] = test system: E. coli strain ATCC 25922; test: Neutropenic mouse thigh infection efficacy; format: in vivo
Procedure: Female CD-1 mice from Charles River Laboratories were allowed to acclimate for 5 days prior to start of study. Animals were housed four per cage with free access to food and water. Mice received two doses of cyclophosphamide on days −4 and −1 with 150 mg/kg and 100 mg/kg delivered IP, respectively. All procedures were performed to NeoSome IACUC policies and guidelines as well as OLAW standards.
E. coli strain ATCC 25922 was prepared for infection from an overnight plate culture. A portion of the plate was resuspended in sterile saline and adjusted to an OD of 0.15 at 625 nm. The adjusted bacterial suspension was further diluted to target an infecting inoculum of 1.5×10^5 CFU/mouse, the actual inoculum size for E. coli was 1.45×10^5 CFU/mouse. Plate counts of the inoculum was performed to confirm inoculum concentration.
Mice were inoculated with 100 μL of the prepared bacterial suspension via intramuscular injection into the right rear thigh.
Beginning at two hours post infection, mice were dosed with test agents subcutaneously at 10 mL/kg. A second dose of test agents was delivered at 6 hours post infection. For co-administered therapy, test agents were delivered separately at two different injection sites. Four animals were dosed per group. One group of four mice were euthanized at initiation of therapy (T=2 h) and CFUs determined. All remaining mice were euthanized at 26 hours post infection. At termination, thighs were aseptically excised, weighed, and homogenized to a uniform consistency in 2 mL of sterile saline. The homogenate was serially diluted and plated on bacterial growth media. The CFUs were enumerated after overnight incubation. The average and standard deviations for each group were determined.
Neutropenic mice infected with E. coli were treated with novobiocin, polymyxin B, or a combination of the two for the evaluation of efficacy is a thigh infection model.

[9] = test system: wild-type A. baumannii; test: Checkerboard microdilution assay with PMB, PMBN, novobiocin, novobiocin aglycone; format: cell-based
[10] = Novobiocin 200 mg/kg (total 400) BID/SC

CO[C@@H]1[C@@H](OC(N)=O)[C@@H](O)[C@H](Oc2ccc3c(O)c(NC(=O)c4ccc(O)c(CC=C(C)C)c4)c(=O)oc3c2C)OC1(C)C [Novobiocin, novobiocin]
synergy with polymyxin B [1]: synergizes with polymyxin B | LPS release from vesicles to LptA* [2]: stimulate LPS release from the LptB2LptFG(ch)C vesicles in a concentration dependent manner | synergy with polymyxin B [3]: synergizes with polymyxin B | zone of inhibition at 30 µg/disc ([4]; read-out: Zone of inhibition, diameter of the zone of partial growth inhibition (in parentheses)): 24 mm | zone of inhibition at 30 µg/disc ([4]; read-out: Zone of inhibition, diameter of the zone of total growth inhibition): 14 mm | zone of inhibition at 30 µg/disc [5]: < 6 mm | zone of inhibition at 30 µg/disc [6]: < 6 mm | zone of inhibition at 30 µg/disc [7]: < 6 mm | change in log10 CFU/g of thigh from 2 hour control [8, 10]: 3.58 log10 CFU/g of thigh | change in log10 CFU/g of thigh from 26 hour controls [8, 10]: −0.51 log10 CFU/g of thigh | activity against this isolate ([8]; Novobiocin delivered at 200 mg/kg): did not demonstrate significant activity | Average log10 CFU/g of thigh ([8]; neutropenic CD-1 mice, Novobiocin 200 mg/kg (total 400) BID/SC, 26 hours post infection): 9.12 log10 CFU/g of thigh | synergy with PMBN [9]: exhibits synergy
